Tests used:
SH-SY5Y cells = experiment: Human H3 acetylation assay (Western blot), cellular HDAC activity; type: cell-based; settings: 1 and 0.1 µM, 2 and 6 h
Protocol: Human H3 acetylation assays: for the determination of global and K9-specific acetylation levels, 500,000 SH-SY5Y cells were seeded in 6-well plates in DMEM/F12 1:1 (Sigma), supplemented with 2 mM glutamine (LabClinics) and 10% FBS (Sigma) and incubated at 37 °C and 5% CO2 in a humid atmosphere. […] After 2 and 6 h of treatment, cells were harvested and centrifuged at 250× g for 4 min at room temperature and cell pellets used for total histone extraction with EpiQuik Total Histone Extraction Kit (Epigentek, Farmingdale, NY, USA) following manufacturer’s instructions. 1 µg of histone extracts were run in MOPS buffer in 12% PAGE (Life Technologies, Carlsbad, CA, USA) and transferred with the iBlot system to nitrocellulose membranes. Transferred blots were stained with the Ponceau S solution (Sigma) and scanned with an Epson Perfection V600 Photo Scanner. Membranes were blocked in blocking buffer (5% skimmed milk in PBS-Tween 0.1%) for 1 h at room temperature, and after blocking blots were incubated with rabbit polyclonal anti-H3K9Ac (1:2000 dilution, Abcam, Cambridge, UK) and rabbit polyclonal anti-H3ac (K9 + K14 + K18 + K23 + K27) (1:2000 dilution, Abcam) overnight at 4 °C in ablocking buffer. […]

human S1P1 receptor = target: T1, human S1P1 receptor (Homo sapiens, UniProt P21453); experiment: CellKey impedance assay in CHO cells, agonistic and antagonistic effect; type: cell-based; settings: GPCR based impedance assays
T1 construct: host or cells: CHO cells
T1 sequence (P21453 whole entry): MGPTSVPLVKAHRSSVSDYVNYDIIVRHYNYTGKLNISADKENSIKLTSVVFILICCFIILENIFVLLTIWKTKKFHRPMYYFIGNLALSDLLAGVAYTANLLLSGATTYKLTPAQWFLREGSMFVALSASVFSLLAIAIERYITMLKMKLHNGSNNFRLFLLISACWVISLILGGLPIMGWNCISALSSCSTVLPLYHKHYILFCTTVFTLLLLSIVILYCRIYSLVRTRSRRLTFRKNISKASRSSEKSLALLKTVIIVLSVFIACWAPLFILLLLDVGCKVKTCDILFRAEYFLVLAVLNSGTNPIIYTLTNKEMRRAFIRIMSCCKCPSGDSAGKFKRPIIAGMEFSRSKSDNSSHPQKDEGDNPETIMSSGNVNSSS
Protocol: Cell on impedance modulation, using the CellKey (Cellular Dielectric Spectroscopy) detection method (CellKey 96, MDS Sciex, Concord, ON, Canada) at Eurofins Pharma Discovery Services (Celle-Lévescault, France). CHO cells were seeded onto a 96-well plate at 15.104 cells/well in HBSS buffer (Invitrogen), 20 mM HEPES (Invitrogen), 10% FCS (Invitrogen), and 0.1% BSA (Sigma), allowed to equilibrate for 60 min at 28 °C. DMSO solutions of compounds were diluted in HBSS and 0.1% BSA. Plates were placed onto the system, and measurements were made at a temperature of 28 °C. To measure the agonistic effect, compounds and controls in duplicate were added simultaneously to all of the wells using an integrated fluidics system. Impedance measurements were monitored for 10 min after ligand addition. […] To measure the antagonistic effect, compounds and controls in duplicate were pre-incubated for 15 min before the addition of the reference agonist S1P at 0.01 µM (EC80). Impedance measurements were monitored for 10 min.
Evaluation of the agonistic (a) and antagonist (b) effect of the compounds on the human S1P1 receptor. […] Data are expressed as percentage of control (no compound) activity, n = 2. TSA was used as a control; (d) Cellular HDAC activity assay. […] SAHA was used as a control. Ponceau S staining was used as loading control. Veh: Vehicle. […] TSA: Trichostatin A. SAHA: suberoylanilide hydroxamic acid.

Row | SMILES | impact on cellular HDAC activity (acetylated H3 or H3K9 levels) (SH-SY5Y cells) | agonist and antagonist activity at S1P1 receptor (human S1P1 receptor) | agonist and antagonist activity at S1P1 receptor (human S1P1 receptor; listed as vafidemstat)
1 | CCCCCCCCc1ccc(CCC(N)(CO)CO)cc1 [FTY720, Fingolimod, reference compound] | unable to confirm the previous studies reporting that FTY720 or FTY720-P had any significant impact | – | –
2 | Nc1nnc(CN[C@@H]2C[C@H]2c2ccc(OCc3ccccc3)cc2)o1 [ORY-2001] | – | neither ORY-2001 nor ORY-LSD1 (at concentrations well above those needed to fully inhibit KDM1A) showed any activity | does not target the S1PR

Source: PMC9323733, “Efficacy of Vafidemstat in Experimental Autoimmune Encephalomyelitis Highlights the KDM1A/RCOR1/HDAC Epigenetic Axis in Multiple Sclerosis” (Pharmaceutics, 2022)
